Test results reported in patent US10188693B2, “Methods for treatment of atherosclerosis” (Stealth BioTherapeutics Corp, priority 2012, dated 2019).
“And” between values parts separate entries of the source, which are not always exact repeats. Equal entries are not always repeated.

Legend:
[1] = test system: Apoprotein E deficient mice; test: Plasma lipid analysis using an autoanalyzer (TC, Trigs, PL, FC, CE by calculation); assay type: in vivo; design: TC, plasma / FC, plasma / CE, plasma / Trigs, plasma / PL, plasma / TC / FC / CE / Trigs / PL: unit not given here; details: for PL: plasma phospholipid; for TC: plasma total cholesterol; for Trigs: plasma triglycerides
Text: (§1) Apoprotein E deficient mice (Jackson Laboratories, 600 Main Street, Bar Harbor, Me.) were used in this study. The mice were male, 7-8 weeks of age, and between 18-20 g in weight. An initial total cholesterol measurement was made on 30 mice, and the mice were grouped into two groups of 15 to match the total cholesterol measurements. Both groups were fed a “western diet” (40 kcal % butterfat, 0.15% [wt/wt] cholesterol, Harlan Teklad diet TD-88137). Starting at t=0, the control group of 15 mice received vehicle only (phosphate buffered saline at pH 7.4), while the test group of 15 mice received aromatic-cationic peptide reconstituted in phosphate buffered saline. Body weights of the mice were recorded weekly, and mortality checks were performed daily.
(§2) The aromatic-cationic peptide D-Arg-2′6′-Dmt-Lys-Phe-NH2 (sterile lyophilized powder, reconstituted in phosphate buffered saline) was tested. For the 12-week study, test mice received a single, daily dose of the peptide, subcutaneously at 1 mg/kg. Control mice received a single daily dose of vehicle.
(§3) Experimental Protocol/Data Collection. Blood was collected every four weeks (orbital plexis) under isoflurane anesthesia (3%) and blood lipids were determined. Plasma lipid analysis was conducted for both groups at t=0, 4, […], 8, and 12 weeks. Plasma lipid analysis using an autoanalyzer included total cholesterol (TC), triglycerides (Trigs), phospholipids (PL), free cholesterol (FC), and cholesterol ester (CE, by calculation). Gel electrophoresis was used to measure levels of high-density lipoprotein cholesterol (HDL-C), low-density lipoprotein cholesterol (LDL-C), and very low-density lipoprotein cholesterol (VLDL-C).

[2] = test system: Apoprotein E deficient mice; test: Plasma lipoprotein cholesterol by gel electrophoresis (Spife; HDL-C, LDL-C, VLDL-C); assay type: in vivo; details: for HDL-C / LDL-C / VLDL-C: plasma, Spife (electrophoresis)
Text: as §1, §2, §3

Human skin fibroblasts = test: Coenzyme Q10 levels in fibroblasts treated with peptide; assay type: cell-based; details: 10 nM peptide, 16-24 hours or 5 days, versus saline treated fibroblasts; listed as aromatic-cationic peptide
Experimental: Fibroblasts were treated with an aromatic-cationic peptide of the present disclosure, and levels of coenzyme Q10 were evaluated.
Human skin fibroblasts from normal subjects were incubated under standard tissue culture medium containing high glucose levels to support anaerobic conditions. At approximately 90% confluence, cells were incubated in the presence of 10 nM D-Arg-2′6′-Dmt-Lys-Phe-NH2 for a period of either one day (24 h) or five days as shown in Table 11 below. The culture medium was not changed during the incubation period. Cells were harvested and the cellular level of CoQ was determined using methods known in the art. Data represents the average n=3-6.

[3] = week 12, AVE of 15 test animals
[4] = week 12, individual test mouse (sample #16-30), listed as aromatic-cationic peptide
[5] = week 4, individual test mouse (sample #16-30), listed as aromatic-cationic peptide
[6] = week 8, individual test mouse (sample #16-30), listed as aromatic-cationic peptide
[7] = Week 0 (t=0, start of dosing), individual mouse of test group
[8] = Week 0, group average of test group
[9] = at 4, 8 and 12 week time points, versus vehicle

D-Arg-2′6′-Dmt-Lys-Phe-NH2
PL [1, 3]: 434
PL [1, 4]: 366 and 318 and 320 and 432 and 491 and 321 and 363 and 394 and 374 and 423 and 536 and 521 and 340 and 575 and 741
TC ([1]; week 4, AVE of 15 test animals): 997
TC [1, 5]: 799 and 924 and 976 and 1139 and 1038 and 673 and 940 and 1046 and 835 and 822 and 1026 and 1223 and 935 and 1248 and 1337
TC ([1]; week 8, AVE of 15 test animals): 1282
TC [1, 6]: 1262 and 1004 and 1505 and 1183 and 1545 and 943 and 1008 and 1473 and 1023 and 956 and 1435 and 1414 and 1147 and 1534 and 1797
TC [1, 3]: 1003
TC [1, 4]: 898 and 540 and 884 and 937 and 1420 and 719 and 674 and 745 and 990 and 999 and 1379 and 1255 and 558 and 1317 and 1736
Trigs ([1]; week 4, AVE of 15 test animals): 58
Trigs [1, 5]: 18 (2×) and 39 and 28 and 85 and 59 (2×) and 46 and 108 and 33 and 44 (2×) and 67 and 80 and 144
Trigs ([1]; week 8, AVE of 15 test animals): 57
Trigs [1, 6]: 34 (3×) and 31 (2×) and 51 (2×) and 48 and 53 and 43 and 75 and 63 and 39 and 67 and 195
Trigs [1, 3]: 55
Trigs [1, 4]: 27 and 49 and 10 and 37 (2×) and 18 and 39 (2×) and 13 and 25 and 74 and 89 and 97 and 112 and 158
HDL-C, plasma [2, 7]: 19 mg/dL and 34 mg/dL and 32 mg/dL and 37 mg/dL and 35 mg/dL and 21 mg/dL and 38 mg/dL and 41 mg/dL and 6 mg/dL and 31 mg/dL and 26 mg/dL and 39 mg/dL and 22 mg/dL and 29 mg/dL and 8 mg/dL
LDL-C, plasma [2, 7]: 258 mg/dL and 260 mg/dL and 307 mg/dL and 245 mg/dL and 268 mg/dL and 295 mg/dL and 304 mg/dL and 474 mg/dL and 287 mg/dL and 352 mg/dL and 380 mg/dL and 481 mg/dL and 410 mg/dL and 432 mg/dL and 773 mg/dL
VLDL-C, plasma [2, 7]: 25 mg/dL (2×) and 23 mg/dL and 37 mg/dL and 20 mg/dL (2×) and 19 mg/dL and 27 mg/dL and 36 mg/dL and 15 mg/dL and 26 mg/dL and 31 mg/dL and 24 mg/dL and 28 mg/dL and 29 mg/dL
HDL-C, plasma, AVE [2, 8]: 28 mg/dL
LDL-C, plasma, AVE [2, 8]: 368 mg/dL
VLDL-C, plasma, AVE [2, 8]: 26 mg/dL
plasma LDL-C, in words [2, 9]: reduces
plasma VLDL-C, in words [2, 9]: reduces
HDL-C ([2]; week 4, AVE of 15 test animals): 25 mg/dL
LDL-C ([2]; week 4, AVE of 15 test animals): 940 mg/dL
VLDL-C ([2]; week 4, AVE of 15 test animals): 33 mg/dL
HDL-C [2, 5]: 18 mg/dL and 20 mg/dL (3×) and 0 mg/dL and 13 mg/dL and 7 mg/dL and 23 mg/dL and 32 mg/dL (3×) and 15 mg/dL and 45 mg/dL and 44 mg/dL and 49 mg/dL
LDL-C [2, 5]: 745 mg/dL and 866 mg/dL and 918 mg/dL and 1120 mg/dL and 982 mg/dL and 648 mg/dL and 893 mg/dL and 975 mg/dL and 770 mg/dL and 766 mg/dL and 966 mg/dL and 1147 mg/dL and 874 mg/dL and 1171 mg/dL and 1254 mg/dL
VLDL-C [2, 5]: 35 mg/dL (2×) and 37 mg/dL (2×) and 19 mg/dL and 44 mg/dL (2×) and 18 mg/dL and 23 mg/dL and 39 mg/dL and 41 mg/dL and 28 mg/dL and 31 mg/dL and 30 mg/dL and 32 mg/dL
HDL-C ([2]; week 8, AVE of 15 test animals): 32 mg/dL
LDL-C ([2]; week 8, AVE of 15 test animals): 1166 mg/dL
VLDL-C ([2]; week 8, AVE of 15 test animals): 84 mg/dL
HDL-C [2, 6]: 42 mg/dL and 34 mg/dL and 27 mg/dL and 33 mg/dL and 19 mg/dL (2×) and 8 mg/dL and 45 mg/dL and 16 mg/dL and 32 mg/dL and 41 mg/dL (2×) and 25 mg/dL and 43 mg/dL and 57 mg/dL
LDL-C [2, 6]: 1119 mg/dL and 897 mg/dL and 1392 mg/dL and 1071 mg/dL and 1415 mg/dL and 901 mg/dL and 875 mg/dL and 1378 mg/dL and 922 mg/dL and 856 mg/dL and 1317 mg/dL and 1320 mg/dL and 1025 mg/dL and 1382 mg/dL and 1621 mg/dL
VLDL-C [2, 6]: 101 mg/dL and 73 mg/dL and 86 mg/dL and 79 mg/dL (2×) and 112 mg/dL and 34 mg/dL and 88 mg/dL and 69 mg/dL and 59 mg/dL and 93 mg/dL and 74 mg/dL and 80 mg/dL and 109 mg/dL and 119 mg/dL
HDL-C [2, 3]: 21 mg/dL
LDL-C [2, 3]: 939 mg/dL
VLDL-C [2, 3]: 44 mg/dL
HDL-C [2, 4]: 38 mg/dL and 20 mg/dL (2×) and 10 mg/dL and 41 mg/dL and 21 mg/dL and 5 mg/dL and 31 mg/dL (2×) and 2 mg/dL (2×) and 40 mg/dL and 28 mg/dL and 1 mg/dL and 23 mg/dL
LDL-C [2, 4]: 821 mg/dL and 485 mg/dL and 854 mg/dL and 852 mg/dL and 1328 mg/dL and 693 mg/dL and 611 mg/dL and 692 mg/dL and 962 mg/dL and 896 mg/dL and 1275 mg/dL and 1218 mg/dL and 505 mg/dL and 1203 mg/dL and 1688 mg/dL
VLDL-C [2, 4]: 39 mg/dL and 35 mg/dL and 21 mg/dL (2×) and 43 mg/dL and 71 mg/dL and 32 mg/dL and 33 mg/dL and 26 mg/dL and 63 mg/dL and 76 mg/dL and 36 mg/dL and 30 mg/dL and 83 mg/dL and 46 mg/dL
coenzyme Q10 levels in fibroblast cells, in words (Human skin fibroblasts): increased
